Columns and labels:
[1] = test system: Methicillin Resistant Staphylococcus aureus strain USA 200; assay: Minimum inhibitory concentration (MIC), CLSI broth micro-dilution, S. aureus; type: cell-based; conditions: Staphylococcus aureus, MRSA / USA200; Table 6; MRSA USA 200; cation adjusted Mueller Hinton Broth + 0.002% Tween-80; 35° C., 22 hours
Summary of the method: (§1)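 Colonies grown 20 h at 35° C on Trypticase Soy agar (MRSA) or Luria agar (E. coli) were suspended in cation-adjusted Mueller Hinton broth with 0.002% Tween-80. Suspensions were added at OD600 0.0005 to 10-point twofold compound dilutions, then incubated 22 h at 35° C.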

[2] = test system: Escherichia coli ATCC 25922; assay: Minimum inhibitory concentration (MIC), CLSI broth micro-dilution, E. coli; type: cell-based; conditions: Escherichia coli, ATCC25922, 22 h, Table 6, cation adjusted Mueller Hinton Broth + 0.002% Tween-80, 35° C.
Summary of the method: as §1

Compound | MIC [1] | MIC [2]
Cc1nc(-c2ccc(C3(C)CC3)cc2)nc(C)c1C(=O)N[C@@H](CCN)C(=O)N(C)[C@@H]1C(=O)N[C@@H](C)C(=O)N[C@H](C(=O)NCC#N)Cc2ccc(OCCN)c(c2)-c2cc1ccc2OCCN (racemic) [Compound 280, rac-(8S,11S,14S)-3,18-bis(2-aminoethoxy)-N-(cyanomethyl)-11-methyl-14-[methyl-[rac-(2S)-4-amino-2-[[4,6-dimethyl-2-[4-(1-methylcyclopropyl)phenyl]pyrimidine-5-carbonyl]amino]butanoyl]amino]-10,13-dioxo-9,12-diazatricyclo[13.3.1.12,6]icosa-1(18),2(20),3,5,15(19),16-hexaene-8-carboxamide] | 0.031 µM | 0.13 µM
CCC1(c2ccc(-c3nc(C)c(C(=O)N[C@@H](CCN)C(=O)N(C)[C@@H]4C(=O)N[C@@H](C)C(=O)N[C@H](C(=O)NCC#N)Cc5ccc(OCCN)c(c5)-c5cc4ccc5OCCN)c(C)n3)cc2)CC1 (racemic) [Compound 281, rac-(8S,11S,14S)-3,18-bis(2-aminoethoxy)-N-(cyanomethyl)-11-methyl-14-[methyl-[rac-(2S)-4-amino-2-[[2-[4-(1-ethylcyclopropyl)phenyl]-4,6-dimethyl-pyrimidine-5-carbonyl]amino]butanoyl]amino]-10,13-dioxo-9,12-diazatricyclo[13.3.1.12,6]icosa-1(18),2(20),3,5,15(19),16-hexaene-8-carboxamide] | 0.016 µM | 0.065 µM
Cc1nc(-c2ccc3c(c2)CCC32CC2)nc(C)c1C(=O)N[C@@H](CCN)C(=O)N(C)[C@@H]1C(=O)N[C@@H](C)C(=O)N[C@H](C(=O)NCC#N)Cc2ccc(OCCN)c(c2)-c2cc1ccc2OCCN (racemic) [Compound 284, rac-(8S,11S,14S)-3,18-bis(2-aminoethoxy)-N-(cyanomethyl)-11-methyl-14-[methyl-[rac-(2S)-4-amino-2-[(4,6-dimethyl-2-spiro[cyclopropane-1,1′-indane]-5′-yl-pyrimidine-5-carbonyl)amino]butanoyl]amino]-10,13-dioxo-9,12-diazatricyclo[13.3.1.12,6]icosa-1(18),2(20),3,5,15(19),16-hexaene-8-carboxamide] | 0.016 µM | 0.13 µM

The remaining lines, values ahead:

MIC [1] | MIC [2] | Compound
0.016 µM | 0.094 µM | CCCC1(c2ccc(-c3nc(C)c(C(=O)N[C@@H](CCN)C(=O)N(C)[C@@H]4C(=O)N[C@@H](C)C(=O)N[C@H](C(=O)NCC#N)Cc5ccc(OCCN)c(c5)-c5cc4ccc5OCCN)c(C)n3)cc2)CC1 (racemic) [Compound 282, rac-(8S,11S,14S)-3,18-bis(2-aminoethoxy)-N-(cyanomethyl)-11-methyl-14-[methyl-[rac-(2S)-4-amino-2-[[4,6-dimethyl-2-[4-(1-propylcyclopropyl)phenyl]pyrimidine-5-carbonyl]amino]butanoyl]amino]-10,13-dioxo-9,12-diazatricyclo[13.3.1.12,6]icosa-1(18),2(20),3,5,15(19),16-hexaene-8-carboxamide]
0.012 µM | 0.094 µM | CCCCC1(c2ccc(-c3nc(C)c(C(=O)N[C@@H](CCN)C(=O)N(C)[C@@H]4C(=O)N[C@@H](C)C(=O)N[C@H](C(=O)NCC#N)Cc5ccc(OCCN)c(c5)-c5cc4ccc5OCCN)c(C)n3)cc2)CC1 (racemic) [Compound 283, rac-(8S,11S,14S)-3,18-bis(2-aminoethoxy)-N-(cyanomethyl)-11-methyl-14-[methyl-[rac-(2S)-4-amino-2-[[2-[4-(1-butylcyclopropyl)phenyl]-4,6-dimethyl-pyrimidine-5-carbonyl]amino]butanoyl]amino]-10,13-dioxo-9,12-diazatricyclo[13.3.1.12,6]icosa-1(18),2(20),3,5,15(19),16-hexaene-8-carboxamide]
